Assay results reported in the NIST ThermoML archive (doi:10.1016/j.fluid.2014.11.020).
Numbers after ± are expanded uncertainties.

Assay: activity coefficient (dimensionless); of the first substance listed, at infinite dilution; xn = mol fraction of the nth substance listed
Details: Liquid, Chromatography, x1 = 0

| SMILES | activity coefficient (323.15 K) | activity coefficient (333.15 K) | activity coefficient (343.15 K) |
| --- | --- | --- | --- |
| ClCCl [dichloromethane] + CCCCCCCCn1cc[n+](COCCC)c1C.O=S(=O)([N-]S(=O)(=O)C(F)(F)F)C(F)(F)F | 0.42 ± 0.04 | 0.43 ± 0.04 | 0.48 ± 0.04 |
| C#CCCCC [1-hexyne] + CCCOC[n+]1ccn(C)c1.O=S(=O)([N-]S(=O)(=O)C(F)(F)F)C(F)(F)F | 3.39 ± 0.23 | 3.4 ± 0.23 | 3.4 ± 0.23 |
| CCCCCCCCCCC [undecane] + CCCCCCCCn1cc[n+](COCCC)c1C.N#C[N-]C#N | 20.6 ± 1.4 | 19.6 ± 1.3 | 18.2 ± 1.2 |
| ClC(Cl)Cl [trichloromethane] + N#C[N-]C#N.N#C[N-]C#N.c1ccc(Cn2cc[n+](COCCCOC[n+]3ccn(Cc4ccccc4)c3)c2)cc1 | 1.22 ± 0.08 | 1.2 ± 0.08 | 1.33 ± 0.09 |
| Cc1ccc(C)cc1 [1,4-dimethylbenzene] + N#C[N-]C#N.N#C[N-]C#N.c1ccc(Cn2cc[n+](COCCCOC[n+]3ccn(Cc4ccccc4)c3)c2)cc1 | 8.84 ± 0.6 | 8.42 ± 0.57 | 8.16 ± 0.56 |
| CCCCCC [hexane] + CCCCCCCCn1cc[n+](COCCC)c1C.O=S(=O)([N-]S(=O)(=O)C(F)(F)F)C(F)(F)F | 3.82 ± 0.26 | 3.74 ± 0.25 | 3.12 ± 0.21 |
| C=CCCCC [hex-1-ene] + CCCOC[n+]1ccc(N(C)C)cc1.O=S(=O)([N-]S(=O)(=O)C(F)(F)F)C(F)(F)F | 6.62 ± 0.45 | 6.79 ± 0.46 | 5.24 ± 0.36 |
| Cc1ccc(C)cc1 [1,4-dimethylbenzene] + CCCOC[n+]1ccn(C)c1.O=S(=O)([N-]S(=O)(=O)C(F)(F)F)C(F)(F)F | 2.58 ± 0.18 | 2.53 ± 0.17 | 2.52 ± 0.17 |
| CCc1ccccc1 [ethylbenzene] + CCCOC[n+]1ccn(Cc2ccccc2)c1.N#C[N-]C#N | 3.41 ± 0.23 | 3.36 ± 0.23 | 3.32 ± 0.23 |
| Cc1ccccc1 [toluene] + Cn1cc[n+](COCCCOC[n+]2ccn(C)c2)c1.O=S(=O)([N-]S(=O)(=O)C(F)(F)F)C(F)(F)F.O=S(=O)([N-]S(=O)(=O)C(F)(F)F)C(F)(F)F | 1.46 ± 0.1 | 1.48 ± 0.1 | 1.46 ± 0.1 |
| CCCO [propan-1-ol] + CCCCCCCCn1cc[n+](COCCC)c1C.N#C[N-]C#N | 0.4 ± 0.03 | 0.4 ± 0.03 | 0.39 ± 0.03 |
| CCCCCCCCCCC [undecane] + CCCOC[n+]1ccn(Cc2ccccc2)c1.O=S(=O)([N-]S(=O)(=O)C(F)(F)F)C(F)(F)F | 41.6 ± 2.9 | 31 ± 2.1 | 27.7 ± 1.9 |
| ClC(Cl)Cl [trichloromethane] + CCCOC[n+]1ccn(C)c1.N#C[N-]C#N | 0.8 ± 0.05 | 0.85 ± 0.05 | 0.92 ± 0.06 |
| CCCCCCCCC [nonane] + CCCCCCCCn1cc[n+](COCCCOC[n+]2ccn(CCCCCCCC)c2C)c1C.O=S(=O)([N-]S(=O)(=O)C(F)(F)F)C(F)(F)F.O=S(=O)([N-]S(=O)(=O)C(F)(F)F)C(F)(F)F | 8.26 ± 0.56 | 7.45 ± 0.51 | 7.1 ± 0.48 |
| c1ccncc1 [pyridine] + CCCCCCCCn1cc[n+](COCCCOC[n+]2ccn(CCCCCCCC)c2C)c1C.N#C[N-]C#N.N#C[N-]C#N | 0.4 ± 0.03 | 0.38 ± 0.03 | 0.38 ± 0.03 |
| CCC[N+](=O)[O-] [1-nitropropane] + CN(C)c1cc[n+](COCCCOC[n+]2ccc(N(C)C)cc2)cc1.O=S(=O)([N-]S(=O)(=O)C(F)(F)F)C(F)(F)F.O=S(=O)([N-]S(=O)(=O)C(F)(F)F)C(F)(F)F | 0.57 ± 0.04 | 0.59 ± 0.04 | 0.56 ± 0.04 |
| ClCCl [dichloromethane] + CCCOC[n+]1ccn(Cc2ccccc2)c1.O=S(=O)([N-]S(=O)(=O)C(F)(F)F)C(F)(F)F | 0.52 ± 0.04 | 0.44 ± 0.04 | 0.37 ± 0.03 |
| C#CCCCCC [1-heptyne] + CCCOC[n+]1ccn(C)c1.F[B-](F)(F)F | 16.6 ± 1.1 | 16.7 ± 1.1 | 16.7 ± 1.1 |
| ClC(Cl)(Cl)Cl [tetrachloromethane] + CCCCCCCCn1cc[n+](COCCC)c1C.O=S(=O)([N-]S(=O)(=O)C(F)(F)F)C(F)(F)F | 1.21 ± 0.08 | 1.19 ± 0.08 | 1.24 ± 0.08 |
| ClC(Cl)Cl [trichloromethane] + CCCCCCCCn1cc[n+](COCCCOC[n+]2ccn(CCCCCCCC)c2C)c1C.N#C[N-]C#N.N#C[N-]C#N | 0.24 ± 0.03 | 0.26 ± 0.03 | 0.27 ± 0.03 |
| CCCCCCCCCCC [undecane] + CCCOC[n+]1ccn(Cc2ccccc2)c1.N#C[N-]C#N | 208 ± 14 | 175 ± 12 | 140 ± 9.6 |
